# Data as given in patent US20110312961A1, “2,5-Disubstituted Morpholine Orexin REceptor Antagonists” (priority 2008, published 2011).
# Legend:
# [1] = biological target: T1, human recombinant α4β2 nicotinic receptors (Homo sapiens, UniProt P17787+P43681); assay: [3H]-nicotine radioligand binding, SH-EP1/human α4β2 membranes; conditions: read-out: inhibition of [3H]-nicotine binding to human recombinant α4β2 nicotinic receptors
# T1 construct: expressed in transfected cells; host or cells: SH-EP1 clonal cells
# Method: Preparation of membranes from SH-EP1/human α4β2 clonal cells: Cell pellets from 40 150 mm culture dishes were pooled, and homogenized by Polytron (Kinematica GmbH, Switzerland) in 20 milliliters of ice-cold preparative buffer. The homogenate was centrifuged at 48,000 g for 20 minutes at 4° C. The resulting pellet was re-suspended in 20 mL of ice-cold preparative buffer and stored at −20° C.
# On the day of the assay, the frozen membranes were thawed and spun at 48,000×g for 20 min. The supernatant was decanted and discarded. The pellet was resuspended in Dulbecco's phosphate buffered saline (PBS, Life Technologies) pH 7.4 and homogenized with the Polytron for 6 seconds. Protein concentrations were determined using a Pierce BCA Protein Assay Kit, with bovine serum albumin as the standard (Pierce Chemical Company, Rockford, Ill.).
# Membrane preparations (approximately 50 μg for human and 200-300 μg protein for rat α4β2) were incubated in PBS (50 μL and 100 μL respectively) in the presence of competitor compound (0.01 nM to 100 μM) and 5 nM [^3H]nicotine for 2-3 hours on ice. […] Filters were then counted to determine radioactivity bound to the membranes by liquid scintillation counting (2200CA Tri-Carb LSC, Packard Instruments, 50% efficiency or Wallac Trilux 1450 MicroBeta, 40% efficiency, Perkin Elmer).
# Data were expressed as disintegrations per minute (DPMs). […]
# Sprague-Dawley rats = assay: Complete Freund's adjuvant (CFA)-induced thermal hyperalgesia; type: in vivo, rat; conditions: 0.1, 1 or 10 mg/kg s.c., 1 hour post-dose, vs vehicle
# Method: Injection of complete Freund's adjuvant (CFA) in rats is commonly used to evaluate compounds with potential for use as drugs in treatment of mono-arthritis (osteo-arthritis) and other inflammatory conditions. Signs of hyperalgesia develop within 24 h (Schaible and Grubb, 1993).
# (2S,3R)—N-2-((3-pyridinyl)methyl)-1-azabicyclo[2.2.2]oct-3-yl)-3,5-difluorobenzamide was evaluated for possible analgesia effect in the CFA-induced thermal hyperalgesia test in rats using methods similar to those described by Walker and colleagues (2003). Briefly, adult male Sprague-Dawley rats (BioLasco, Taiwan) weighing 180±20 g on receipt were randomly assigned to treatment groups of n=8 per group. Animals each received a sub plantar injection (0.1 mL) of CFA (DIFCO, 264010; 0.1% solution) to the right hind paw at 24 h prior to experimental testing. Thermal hyperalgesia was tested using a Paw/Tail stimulator analgesia meter (IITC Model-336G, IITC, USA) with a thermally regulated glass floor set at 30° C. […] The time required for the animal to withdraw the paw from the thermal stimulus was automatically recorded. […]
# Twenty-four hours after CFA injection, subjects were pre-selected (for clear presence of thermal hyperalgesia) for experimentation only if the latency to withdrawal was less than 75% of the baseline. […] The post-treatment level of thermal hyperalgesia was then measured at 60 minutes post-treatment. […]
# T1 sequence (P43681 29-627 limits assumed): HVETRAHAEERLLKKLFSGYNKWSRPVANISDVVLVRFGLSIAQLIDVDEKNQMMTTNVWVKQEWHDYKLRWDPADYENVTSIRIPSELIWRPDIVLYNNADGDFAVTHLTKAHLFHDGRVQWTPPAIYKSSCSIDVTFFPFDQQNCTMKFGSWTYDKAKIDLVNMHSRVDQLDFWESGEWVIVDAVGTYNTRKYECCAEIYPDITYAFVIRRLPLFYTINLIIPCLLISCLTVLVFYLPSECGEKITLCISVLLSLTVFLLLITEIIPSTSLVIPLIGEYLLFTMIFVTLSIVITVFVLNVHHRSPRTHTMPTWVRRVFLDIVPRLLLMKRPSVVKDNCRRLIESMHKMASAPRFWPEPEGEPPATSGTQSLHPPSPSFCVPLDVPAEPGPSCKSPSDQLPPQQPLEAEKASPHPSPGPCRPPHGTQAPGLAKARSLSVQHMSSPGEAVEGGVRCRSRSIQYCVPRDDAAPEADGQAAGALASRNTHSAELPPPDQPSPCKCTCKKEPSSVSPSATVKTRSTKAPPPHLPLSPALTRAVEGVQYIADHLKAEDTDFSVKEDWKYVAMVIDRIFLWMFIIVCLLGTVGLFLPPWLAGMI
# T1 sequence (P17787 26-502): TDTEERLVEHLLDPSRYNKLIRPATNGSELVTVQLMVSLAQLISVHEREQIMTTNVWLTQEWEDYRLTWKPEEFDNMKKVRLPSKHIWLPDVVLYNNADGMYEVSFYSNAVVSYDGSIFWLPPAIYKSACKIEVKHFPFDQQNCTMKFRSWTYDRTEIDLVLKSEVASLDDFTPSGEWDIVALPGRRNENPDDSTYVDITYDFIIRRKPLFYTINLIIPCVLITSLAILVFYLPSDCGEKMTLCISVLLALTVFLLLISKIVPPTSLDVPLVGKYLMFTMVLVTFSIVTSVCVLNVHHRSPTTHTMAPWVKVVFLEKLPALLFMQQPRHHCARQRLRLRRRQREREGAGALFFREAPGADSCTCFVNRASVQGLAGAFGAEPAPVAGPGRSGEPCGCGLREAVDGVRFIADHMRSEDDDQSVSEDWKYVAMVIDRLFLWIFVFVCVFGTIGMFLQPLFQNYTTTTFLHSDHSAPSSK
compound,measurement,setting,value
O=C(N[C@@H]1C2CCN(CC2)[C@H]1Cc1cccnc1)c1cc(F)cc(F)c1 [Compound A],Ki,[1],1470 nM
same,analgesic effect on CFA-induced thermal hyperalgesia,Sprague-Dawley rats,not associated with any significant analgesic effect
